Data from patent US8449898B2 (priority 2007, dated 2013).
Where two headings read alike, the source gives them in different places.

Assays:
[1] = tested on: Phytophthora infestans (the causal agent of tomato late blight); experiment: whole plant or invertebrate; type: in vivo; settings: for pest or weed control at 0.4 ppm / pest or weed control at 2 ppm / pest or weed control at 10 ppm / pest or weed control at 40 ppm / pest or weed control at 200 ppm / pest or weed control at 0.04 ppm: Phytophthora infestans; for TLB Obsd: Table D; for TLB Obsd (observed effect, tomato late blight): component (b) alone; for TLB Obsd (disease control rating): Table B
[2] = tested on: Pseudoperonospora cubensis (the causal agent of cucumber downy mildew); experiment: Test B: cucumber downy mildew, preventive spray on cucumber seedlings; type: in vivo; settings: for pest or weed control at 0.4 ppm / pest or weed control at 2 ppm / pest or weed control at 10 ppm / pest or weed control at 40 ppm / pest or weed control at 200 ppm / pest or weed control at 0.4 µg/mL / pest or weed control at 2 µg/mL / pest or weed control at 10 µg/mL / pest or weed control at 40 µg/mL / pest or weed control at 200 µg/mL / pest or weed control at 0.04 ppm: Pseudoperonospora cubensis; for CDM Obsd (disease control rating): Table B
[3] = read-out: TLB Obsd (disease control rating), Table C, component (b) alone 0.4 ppm
[4] = read-out: TLB Obsd (disease control rating), Table C, component (b) alone 2 ppm
[5] = read-out: TLB Obsd (disease control rating), Table C, component (b) alone 10 ppm
[6] = read-out: TLB Obsd (disease control rating), Table C, component (b) alone 40 ppm
[7] = read-out: TLB Obsd (disease control rating), Table C, component (b) alone 200 ppm
[8] = Table C, component (b) alone 0.4 ppm, read-out: CDM Obsd (disease control rating)
[9] = Table C, component (b) alone 2 ppm, read-out: CDM Obsd (disease control rating)
[10] = Table C, component (b) alone 10 ppm, read-out: CDM Obsd (disease control rating)
[11] = Table C, component (b) alone 40 ppm, read-out: CDM Obsd (disease control rating)
[12] = Table C, component (b) alone 200 ppm, read-out: CDM Obsd (disease control rating)
[13] = component (b) alone 0.4 ppm (Compound 1 0 ppm), read-out: CDM Obsd
[14] = component (b) alone 2 ppm (Compound 1 0 ppm), read-out: CDM Obsd
[15] = component (b) alone 10 ppm (Compound 1 0 ppm), read-out: CDM Obsd
[16] = component (b) alone 40 ppm (Compound 1 0 ppm), read-out: CDM Obsd
[17] = component (b) alone 200 ppm (Compound 1 0 ppm), read-out: CDM Obsd
[18] = component (b) alone 10 ppm (Compound 1 0 ppm)
[19] = component (b) alone 40 ppm (Compound 1 0 ppm)

O=C1c2ccccc2C(=O)N1SC(Cl)(Cl)Cl [folpet]
pest or weed control at 0.4 ppm [1, 3]: 0% | pest or weed control at 2 ppm [1, 4]: 9% | pest or weed control at 10 ppm [1, 5]: 9% | pest or weed control at 40 ppm [1, 6]: 24% | pest or weed control at 200 ppm [1, 7]: 75% | pest or weed control at 0.04 ppm ([1]; read-out: TLB Obsd (observed effect, tomato late blight), component (b) alone, 0.04 ppm): 0% | pest or weed control at 2 ppm ([1]; read-out: TLB Obsd (observed effect, tomato late blight), component (b) alone, 2 ppm): 8% | pest or weed control at 10 ppm ([1]; read-out: TLB Obsd (observed effect, tomato late blight), component (b) alone, 10 ppm): 31% | pest or weed control at 40 ppm ([1]; read-out: TLB Obsd (observed effect, tomato late blight), component (b) alone, 40 ppm): 46% | pest or weed control at 200 ppm ([1]; read-out: TLB Obsd (observed effect, tomato late blight), component (b) alone, 200 ppm): 93% | pest or weed control at 0.4 ppm [2, 8]: 47% | pest or weed control at 2 ppm [2, 9]: 47% | pest or weed control at 10 ppm [2, 10]: 47% | pest or weed control at 40 ppm [2, 11]: 92% | pest or weed control at 200 ppm [2, 12]: 95% | pest or weed control at 0.4 µg/mL [2, 13]: 47% | pest or weed control at 2 µg/mL [2, 14]: 47% | pest or weed control at 10 µg/mL [2, 15]: 47% | pest or weed control at 40 µg/mL [2, 16]: 47% | pest or weed control at 200 µg/mL [2, 17]: 88% | pest or weed control at 0.04 ppm ([2]; component (b) alone, read-out: CDM Obsd (observed effect, cucumber downy mildew)): 0% | pest or weed control at 2 ppm ([2]; component (b) alone, 2 ppm, read-out: CDM Obsd (observed effect, cucumber downy mildew)): 0% | pest or weed control at 10 ppm ([2]; component (b) alone, 10 ppm, read-out: CDM Obsd (observed effect, cucumber downy mildew)): 44% | pest or weed control at 40 ppm ([2]; component (b) alone, 40 ppm, read-out: CDM Obsd (observed effect, cucumber downy mildew)): 74% | pest or weed control at 200 ppm ([2]; component (b) alone, 200 ppm, read-out: CDM Obsd (observed effect, cucumber downy mildew)): 87%

CCO[PH](=O)O [fosetyl-aluminum]
TLB Obsd ([1]; component (b) alone at 10 ppm): 0% | TLB Obsd ([1]; component (b) alone at 40 ppm): 20% | TLB Obsd ([1]; component (b) alone at 200 ppm): 65% | TLB Obsd ([1]; component (b) alone at 1000 ppm): 97% | TLB Obsd ([1]; component (b) alone at 2000 ppm): 100% | TLB Obsd (observed effect, tomato late blight) ([1]; 10 ppm): 0 | TLB Obsd (observed effect, tomato late blight) ([1]; 40 ppm): 0 | TLB Obsd (observed effect, tomato late blight) ([1]; 200 ppm): 50 | TLB Obsd (observed effect, tomato late blight) ([1]; 1000 ppm): 99 | TLB Obsd (observed effect, tomato late blight) ([1]; 2000 ppm): 100 | CDM Obsd ([2]; Table D, component (b) alone at 10 ppm): 47% | CDM Obsd ([2]; Table D, component (b) alone at 40 ppm): 47% | CDM Obsd ([2]; Table D, component (b) alone at 200 ppm): 47% | CDM Obsd ([2]; Table D, component (b) alone at 1000 ppm): 98% | CDM Obsd ([2]; Table D, component (b) alone at 2000 ppm): 100% | CDM Obsd [2, 18]: 47% | CDM Obsd [2, 19]: 47% | CDM Obsd ([2]; component (b) alone 200 ppm (Compound 1 0 ppm)): 63% | CDM Obsd ([2]; component (b) alone 1000 ppm (Compound 1 0 ppm)): 98% | CDM Obsd ([2]; component (b) alone 2000 ppm (Compound 1 0 ppm)): 100% | CDM Obsd (observed effect, cucumber downy mildew) ([2]; component (b) alone, 10 ppm): 0 | CDM Obsd (observed effect, cucumber downy mildew) ([2]; component (b) alone, 40 ppm): 0 | CDM Obsd (observed effect, cucumber downy mildew) ([2]; component (b) alone, 200 ppm): 0 | CDM Obsd (observed effect, cucumber downy mildew) ([2]; component (b) alone, 1000 ppm): 68 | CDM Obsd (observed effect, cucumber downy mildew) ([2]; component (b) alone, 2000 ppm): 73

Cc1ccc(C(C)NC(=O)[C@@H](NC(=O)OC(C)C)C(C)C)cc1 (stereo partly shown) [iprovalicarb]
TLB Obsd (disease control rating) ([1]; component (b) alone 0.08 ppm): 0% | TLB Obsd (disease control rating) ([1]; component (b) alone 0.4 ppm): 9% | TLB Obsd (disease control rating) ([1]; component (b) alone 2 ppm): 39% | TLB Obsd (disease control rating) ([1]; component (b) alone 10 ppm): 99% | TLB Obsd (disease control rating) ([1]; component (b) alone 40 ppm): 100% | TLB Obsd (observed effect, tomato late blight) ([1]; 0.08 ppm): 0 | TLB Obsd (observed effect, tomato late blight) ([1]; 0.4 ppm): 21 | TLB Obsd (observed effect, tomato late blight) ([1]; 2 ppm): 74 | TLB Obsd (observed effect, tomato late blight) ([1]; 10 ppm): 98 | TLB Obsd (observed effect, tomato late blight) ([1]; 40 ppm): 100 | CDM Obsd (disease control rating) ([2]; component (b) alone 0.08 ppm): 47% | CDM Obsd (disease control rating) ([2]; component (b) alone 0.4 ppm): 57% | CDM Obsd (disease control rating) ([2]; component (b) alone 2 ppm): 77% | CDM Obsd (disease control rating) ([2]; component (b) alone 10 ppm): 100% | CDM Obsd (disease control rating) ([2]; component (b) alone 40 ppm): 100% | CDM Obsd ([2]; component (b) alone 0.08 ppm (Compound 1 0 ppm)): 26% | CDM Obsd ([2]; component (b) alone 0.4 ppm (Compound 1 0 ppm)): 26% | CDM Obsd ([2]; component (b) alone 2 ppm (Compound 1 0 ppm)): 26% | CDM Obsd [2, 18]: 88% | CDM Obsd [2, 19]: 100% | CDM Obsd (observed effect, cucumber downy mildew) ([2]; component (b) alone, 0.08 ppm): 0 | CDM Obsd (observed effect, cucumber downy mildew) ([2]; component (b) alone, 0.4 ppm): 0 | CDM Obsd (observed effect, cucumber downy mildew) ([2]; component (b) alone, 2 ppm): 0 | CDM Obsd (observed effect, cucumber downy mildew) ([2]; component (b) alone, 10 ppm): 99 | CDM Obsd (observed effect, cucumber downy mildew) ([2]; component (b) alone, 40 ppm): 100

CO/N=C(/C(=O)OC)c1ccccc1COc1ccccc1C [kresoxim-methyl]
pest or weed control at 0.4 ppm [1, 3]: 9% | pest or weed control at 2 ppm [1, 4]: 33% | pest or weed control at 10 ppm [1, 5]: 80% | pest or weed control at 40 ppm [1, 6]: 99% | pest or weed control at 200 ppm [1, 7]: 99% | pest or weed control at 0.04 ppm ([1]; read-out: TLB Obsd, component (b) alone, 0.04 ppm): 8% | pest or weed control at 2 ppm ([1]; read-out: TLB Obsd, component (b) alone, 2 ppm): 32% | pest or weed control at 10 ppm ([1]; read-out: TLB Obsd, component (b) alone, 10 ppm): 86% | pest or weed control at 40 ppm ([1]; read-out: TLB Obsd, component (b) alone, 40 ppm): 96% | pest or weed control at 200 ppm ([1]; read-out: TLB Obsd, component (b) alone, 200 ppm): 100% | pest or weed control at 0.4 ppm [2, 8]: 47% | pest or weed control at 2 ppm [2, 9]: 47% | pest or weed control at 10 ppm [2, 10]: 53% | pest or weed control at 40 ppm [2, 11]: 57% | pest or weed control at 200 ppm [2, 12]: 100% | pest or weed control at 0.4 µg/mL [2, 13]: 47% | pest or weed control at 2 µg/mL [2, 14]: 47% | pest or weed control at 10 µg/mL [2, 15]: 47% | pest or weed control at 40 µg/mL [2, 16]: 99% | pest or weed control at 200 µg/mL [2, 17]: 100% | pest or weed control at 0.04 ppm ([2]; component (b) alone, read-out: CDM Obsd): 9% | pest or weed control at 2 ppm ([2]; component (b) alone, 2 ppm, read-out: CDM Obsd): 9% | pest or weed control at 10 ppm ([2]; component (b) alone, 10 ppm, read-out: CDM Obsd): 30% | pest or weed control at 40 ppm ([2]; component (b) alone, 40 ppm, read-out: CDM Obsd): 37% | pest or weed control at 200 ppm ([2]; component (b) alone, 200 ppm, read-out: CDM Obsd): 100%
